How the values were obtained:
ALOMY [1] = test: Herbicidal post-emergence action 1a (greenhouse pots, visual rating); type: in vivo, Alopecurus myosuroides; details: rated visually about 3 weeks after treatment, 100% = plants have died, 0% = like control plants
Procedure, shortened: (§1)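 Visual scoring versus untreated plants (100% = plants dead, 0% = as control) followed roughly 3 weeks in the greenhouse after treatment. Plants grown in sandy loam pots had been sprayed on green parts at the one-leaf stage, 2–3 weeks post-sowing, with aqueous WP/EC preparations containing 0.5% additive, 600 l/ha, at 320 and/or 80 g/ha.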

AVEFA [2] = test: as above; type: in vivo, Avena fatua; details: rated visually about 3 weeks after treatment, 100% = plants have died, 0% = like control plants
Procedure, shortened: as §1

ECHCG [3] = test: as above; type: in vivo, Echinochloa crus-galli; details: rated visually about 3 weeks after treatment, 100% = plants have died, 0% = like control plants
Procedure, shortened: as §1

LOLRI [4] = test: as above; type: in vivo, Lolium rigidum; details: rated visually about 3 weeks after treatment, 100% = plants have died, 0% = like control plants
Procedure, shortened: as §1

SETVI [5] = test: as above; type: in vivo, Setaria viridis; details: rated visually about 3 weeks after treatment, 100% = plants have died, 0% = like control plants
Procedure, shortened: as §1

ABUTH [6] = test: as above; type: in vivo, Abutilon theophrasti; details: visual rating about 3 weeks after treatment
Procedure, shortened: as §1

AMARE [7] = test: as above; type: in vivo, Amaranthus retroflexus; details: visual rating about 3 weeks after treatment
Procedure, shortened: as §1

MATIN [8] = test: as above; type: in vivo, Matricaria inodora; details: visual rating about 3 weeks after treatment
Procedure, shortened: as §1

PHBPU [9] = test: as above; type: in vivo, Pharbitis purpurea; details: visual rating about 3 weeks after treatment
Procedure, shortened: as §1

POLCO [10] = test: as above; type: in vivo, Polygonum convolvulus; details: visual rating about 3 weeks after treatment
Procedure, shortened: as §1

VERPE [11] = test: as above; type: in vivo, Veronica persica; details: visual rating about 3 weeks after treatment
Procedure, shortened: as §1

ALOMY [12] = test: Herbicidal pre-emergence action 2a (greenhouse pots, visual scoring); type: in vivo, Alopecurus myosuroides; details: dosage 320 g/ha, visual scoring after about 3 weeks
Procedure, shortened: (§2)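 Percent effect (0% like control, 100% plants died) was scored by eye roughly 3 weeks post-application. Formulated compound went onto the soil covering freshly sown seeds in water at 600 l/ha with 0.5% additive; dose 320 g/ha and/or 80 g/ha.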

AVEFA [13] = test: as above; type: in vivo, Avena fatua; details: dosage 320 g/ha, visual scoring after about 3 weeks
Procedure, shortened: as §2

ECHCG [14] = test: as above; type: in vivo, Echinochloa crus-galli; details: dosage 320 g/ha, visual scoring after about 3 weeks
Procedure, shortened: as §2

LOLRI [15] = test: as above; type: in vivo, Lolium rigidum; details: dosage 320 g/ha, visual scoring after about 3 weeks vs untreated controls
Procedure, shortened: as §2

SETVI [16] = test: as above; type: in vivo, Setaria viridis; details: dosage 320 g/ha, visual scoring after about 3 weeks vs untreated controls
Procedure, shortened: as §2

ABUTH [17] = test: as above; type: in vivo, Abutilon theophrasti; details: dosage 320 g/ha, visual scoring after about 3 weeks vs untreated controls
Excerpt: [table] a) Seeds of monocotyledonous and dicotyledonous weed plants and crop plants are placed in plastic or organic plant pots and covered with soil. The compounds of the invention, formulated in the form of wettable powders (WP) or as emulsion concentrates (EC), are then applied onto the surface of the covering soil as aqueous suspension or emulsion with addition of 0.5% additive at a water application rate of 600 1/ha (converted). After the treatment, the pots are placed in a greenhouse and kept under good growth conditions for the trial plants. After about 3 weeks, the effect of the preparations is scored visually in comparison with untreated controls as percentages. For example, 100% activity=the plants have died, 0% activity=like control plants. Tables B1 to B15 below show the effects of selected compounds of the general formula (I) according to Tables 1 and 2 on various harmful plants and an application rate corresponding to 320 g/ha and/or 80 g/ha, which were obtained by the experimental procedure mentioned above.

AMARE [18] = test: as above; type: in vivo, Amaranthus retroflexus; details: dosage 320 g/ha, visual scoring after about 3 weeks vs untreated controls
Procedure, shortened: as §2

MATIN [19] = test: as above; type: in vivo, Matricaria inodora; details: dosage 320 g/ha, visual scoring after about 3 weeks vs untreated controls
Procedure, shortened: as §2

PHBPU [20] = test: as above; type: in vivo, Pharbitis purpurea; details: dosage 320 g/ha, visual scoring after about 3 weeks vs untreated controls
Procedure, shortened: as §2

POLCO [21] = test: as above; type: in vivo, Polygonum convolvulus; details: dosage 320 g/ha, visual scoring after about 3 weeks vs untreated controls
Procedure, shortened: as §2

VERPE [22] = test: as above; type: in vivo, Veronica persica; details: dosage 320 g/ha, visual scoring after about 3 weeks vs untreated controls
Procedure, shortened: as §2

| SMILES | Post-emergence action against ALOMY in % (ALOMY [1]; Dosage 320 g/ha) [%] | Post-emergence action against AVEFA in % (AVEFA [2]; Dosage 320 g/ha) [%] | Post-emergence action against ECHCG in % (ECHCG [3]; Dosage 80 g/ha) [%] | Post-emergence action against ECHCG in % (ECHCG [3]; Dosage 320 g/ha) [%] | Post-emergence action against LOLRI in % (LOLRI [4]; Dosage 320 g/ha) [%] | Post-emergence action against SETVI in % (SETVI [5]; Dosage 80 g/ha) [%] | Post-emergence action against SETVI in % (SETVI [5]; Dosage 320 g/ha) [%] | Post-emergence action against PHBPU in % (PHBPU [9]; dosage 80 g/ha) [%] | Post-emergence action against PHBPU in % (PHBPU [9]; dosage 320 g/ha) [%] | Post-emergence action against POLCO in % (POLCO [10]; dosage 320 g/ha) [%] | Post-emergence action against VERPE in % (VERPE [11]; dosage 80 g/ha) [%] | Post-emergence action against VERPE in % (VERPE [11]; dosage 320 g/ha) [%] | Pre-emergence action against ALOMY in % (ALOMY [12]) [%] | Pre-emergence action against AVEFA in % (AVEFA [13]) [%] | Pre-emergence action against ECHCG in % (ECHCG [14]) [%] | Pre-emergence action against LOLRI in % (LOLRI [15]) [%] | Pre-emergence action against SETVI in % (SETVI [16]) [%] | Pre-emergence action against ABUTH in % (ABUTH [17]) [%] | Pre-emergence action against AMARE in % (AMARE [18]) [%] | Pre-emergence action against MATIN in % (MATIN [19]) [%] | other results |
| --- | --- | --- | --- | --- | --- | --- | --- | --- | --- | --- | --- | --- | --- | --- | --- | --- | --- | --- | --- | --- | --- |
| COC(=O)[C@@H](C)Oc1nn(-c2cnccn2)c(-c2cncc(F)c2)c1Cl [Example I-95] | 100 | 90 | 90 | 90 | 90 | 90 | 90 | 90 | 90 | 90 | 90 | 90 | 100 | 90 | 100 | 100 | 100 | 90 | 100 | 100 | Post-emergence action against ALOMY in % (ALOMY [1]; Dosage 80 g/ha): 100%; Post-emergence action against AVEFA in % (AVEFA [2]; Dosage 80 g/ha): 80%; Post-emergence action against LOLRI in % (LOLRI [4]; Dosage 80 g/ha): 90%; Post-emergence action against ABUTH in % (ABUTH [6]; dosage 80 g/ha): 90%; Post-emergence action against ABUTH in % (ABUTH [6]; dosage 320 g/ha): 90%; Post-emergence action against AMARE in % (AMARE [7]; dosage 80 g/ha): 90%; Post-emergence action against AMARE in % (AMARE [7]; dosage 320 g/ha): 90%; Post-emergence action against MATIN in % (MATIN [8]; dosage 80 g/ha): 80%; Post-emergence action against MATIN in % (MATIN [8]; dosage 320 g/ha): 90%; Post-emergence action against POLCO in % (POLCO [10]; dosage 80 g/ha): 90%; Pre-emergence action against PHBPU in % (PHBPU [20]): 90%; Pre-emergence action against POLCO in % (POLCO [21]): 100%; Pre-emergence action against VERPE in % (VERPE [22]): 100% |
| C[C@@H](Oc1nn(-c2cnccn2)c(-c2cncc(F)c2)c1Br)C(=O)O [Example I-96] | 100 | 90 | 80 | 90 | 100 | 90 | 90 | 90 | 90 | 80 | 90 | 90 | 100 | 90 | 100 | 100 | 100 | 90 | 100 | 100 | Post-emergence action against LOLRI in % (LOLRI [4]; Dosage 80 g/ha): 100%; Post-emergence action against MATIN in % (MATIN [8]; dosage 80 g/ha): 80%; Post-emergence action against MATIN in % (MATIN [8]; dosage 320 g/ha): 90%; Post-emergence action against POLCO in % (POLCO [10]; dosage 80 g/ha): 80%; Pre-emergence action against PHBPU in % (PHBPU [20]): 90%; Pre-emergence action against POLCO in % (POLCO [21]): 100%; Pre-emergence action against VERPE in % (VERPE [22]): 100% |
| CCOC(=O)[C@@H](C)Oc1nn(-c2cnccn2)c(-c2cncc(F)c2)c1Cl [Example I-98] | 80 | 80 | 80 | 80 | 90 | 80 | 80 | 90 | 90 | 80 | 80 | 80 | 90 | 80 | 100 | 90 | 100 | 90 | 100 | 90 | Post-emergence action against ALOMY in % (ALOMY [1]; Dosage 80 g/ha): 80%; Post-emergence action against AVEFA in % (AVEFA [2]; Dosage 80 g/ha): 80%; Post-emergence action against ABUTH in % (ABUTH [6]; dosage 80 g/ha): 80%; Post-emergence action against ABUTH in % (ABUTH [6]; dosage 320 g/ha): 80%; Post-emergence action against AMARE in % (AMARE [7]; dosage 320 g/ha): 80%; Pre-emergence action against PHBPU in % (PHBPU [20]): 80%; Pre-emergence action against POLCO in % (POLCO [21]): 90%; Pre-emergence action against VERPE in % (VERPE [22]): 100% |
| CCOC(=O)[C@@H](C)Oc1nn(-c2cnccn2)c(-c2cncc(F)c2)c1Br [Example I-99] | 100 | 100 | 90 | 90 | 100 | 90 | 90 | 80 | 90 | 80 | 90 | 90 | 100 | 90 | 100 | 100 | 100 | 90 | 100 | 100 | Post-emergence action against ALOMY in % (ALOMY [1]; Dosage 80 g/ha): 80%; Post-emergence action against AVEFA in % (AVEFA [2]; Dosage 80 g/ha): 80%; Post-emergence action against LOLRI in % (LOLRI [4]; Dosage 80 g/ha): 100%; Post-emergence action against AMARE in % (AMARE [7]; dosage 80 g/ha): 90%; Post-emergence action against AMARE in % (AMARE [7]; dosage 320 g/ha): 90%; Post-emergence action against MATIN in % (MATIN [8]; dosage 80 g/ha): 80%; Post-emergence action against MATIN in % (MATIN [8]; dosage 320 g/ha): 90%; Post-emergence action against POLCO in % (POLCO [10]; dosage 80 g/ha): 80%; Pre-emergence action against PHBPU in % (PHBPU [20]): 90%; Pre-emergence action against POLCO in % (POLCO [21]): 90%; Pre-emergence action against VERPE in % (VERPE [22]): 100% |
